Laboratory results published in ChEMBL document CHEMBL5226351, “Sycosterol A, an α-Synuclein Inhibitory Sterol from the Australian Ascidian Sycozoa cerebriformis” (J Nat Prod, 2021).
The source made the active and inactive calls. The rule behind the calls is not given here.

Experiments:
[1] = target: Alpha-synuclein (Homo sapiens) (UniProt P37840); assay: Binding affinity to human alpha-Synuclein at compound to protein molar ratio of 5:1 incubated for 3 hrs by mass spectroscopy analysis
[2] = target: Alpha-synuclein (Homo sapiens) (UniProt P37840); assay: Inhibition of human alpha-Synuclein aggregation at 400 uM incubated for 72 hrs under shaking condition by Thioflavin T based fluorimeter assay relative to control
[3] = target: Alpha-synuclein (Homo sapiens) (UniProt P37840); assay: Inhibition of human alpha-Synuclein aggregation at compound:protein ratio of 1:5 incubated for 72 hrs under shaking condition by Thioflavin T based fluorimeter assay relative to control; conditions: concentration not given here

SMILES	Activity [1]	inhibition [2]	inhibition [3]
CC(CCC[C@@H](C)[C@H]1[C@H](O)[C@@H](O)[C@@H]2[C@]1(C)CC[C@@H]1[C@@]3(C)CC[C@@H](O)C[C@@H]3C[C@@H](O)[C@]12O)COS(=O)(=O)O (some centres undefined)	Active	46.2%	
O=C(O[C@@H]1Cc2c(O)cc(O)cc2O[C@@H]1c1cc(O)c(O)c(O)c1)c1cc(O)c(O)c(O)c1	Active		93.6%
